Here are results for two compounds from PMC7192455, “Exploring novel bacterial terpene synthases” (PLoS ONE, 2020).

Experiment in all cases: product identification by GC-QToF
Common to all, as to assay type: biochemical

In assay [1] the target is T1, MiGerS (ADU09376.1), germacatriene synthase (Micromonospora aurantiaca (nom. illeg.), UniProt A0ABQ6UH67).
T1 construct: gene F6X54_13130; codon-optimised, pETM11, N-terminal His-tag (TEV cleavable), E. coli, Ni-NTA purified
The conditions noted are these: 75 uM FPP, 5 mM MgCl2, 25 mM Tris-HCl pH 7.8, 28 C overnight; products germacrene A (seen as beta-elemene) and 1(10),4,11-germacratriene.

The target in assay [2] is T2, RrNerS (AHY47823.1), linalool/nerolidol synthase (Rubrobacter radiotolerans, UniProt A0A023X648).
T2 construct: gene RradSPS_2540; codon-optimised, pETM11, N-terminal His-tag (TEV cleavable), E. coli, Ni-NTA purified
T2 sequence (A0A023X648 1-315): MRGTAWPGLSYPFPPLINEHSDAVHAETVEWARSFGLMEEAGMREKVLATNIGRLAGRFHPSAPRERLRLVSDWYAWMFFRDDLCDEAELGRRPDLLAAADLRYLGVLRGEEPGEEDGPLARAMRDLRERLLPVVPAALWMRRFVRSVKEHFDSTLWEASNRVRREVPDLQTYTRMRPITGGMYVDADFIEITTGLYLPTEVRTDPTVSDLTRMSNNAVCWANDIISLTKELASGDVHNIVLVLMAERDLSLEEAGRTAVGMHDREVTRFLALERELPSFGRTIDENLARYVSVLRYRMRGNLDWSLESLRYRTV
To be noted: 5 mM MgCl2, 25 mM Tris-HCl pH 7.8, 28 C overnight.

Assay [3] has as its target T3, ScAroS (KYF56472.1), aromandendrene synthase (Sorangium cellulosum, UniProt Z9C2K8JLD0).
T3 construct: codon-optimised, pETM11, N-terminal His-tag (TEV cleavable), E. coli, Ni-NTA purified
T3 sequence (Z9C2K8JLD0 1-329): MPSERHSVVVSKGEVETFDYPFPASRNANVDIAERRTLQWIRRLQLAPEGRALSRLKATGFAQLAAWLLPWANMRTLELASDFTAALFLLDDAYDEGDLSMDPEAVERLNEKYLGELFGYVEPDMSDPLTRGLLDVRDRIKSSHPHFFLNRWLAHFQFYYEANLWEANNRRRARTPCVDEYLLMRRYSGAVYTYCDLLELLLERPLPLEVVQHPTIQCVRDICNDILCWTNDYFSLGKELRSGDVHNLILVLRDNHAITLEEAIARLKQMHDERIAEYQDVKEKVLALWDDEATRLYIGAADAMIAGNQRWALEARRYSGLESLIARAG
To be noted: 75 uM FPP, 5 mM MgCl2, 25 mM Tris-HCl pH 7.8, 28 C overnight; product aromadendrene.

The target in assay [4] is T4, ScGeoS, geosmin synthase (CAB41566.1) (Streptomyces coelicolor, UniProt Q9X839).
T4 construct: gene cyc2; bi-domain enzyme, recombinant, purified; pETM11 N-terminal His-tag
T4 sequence (Q9X839 whole entry): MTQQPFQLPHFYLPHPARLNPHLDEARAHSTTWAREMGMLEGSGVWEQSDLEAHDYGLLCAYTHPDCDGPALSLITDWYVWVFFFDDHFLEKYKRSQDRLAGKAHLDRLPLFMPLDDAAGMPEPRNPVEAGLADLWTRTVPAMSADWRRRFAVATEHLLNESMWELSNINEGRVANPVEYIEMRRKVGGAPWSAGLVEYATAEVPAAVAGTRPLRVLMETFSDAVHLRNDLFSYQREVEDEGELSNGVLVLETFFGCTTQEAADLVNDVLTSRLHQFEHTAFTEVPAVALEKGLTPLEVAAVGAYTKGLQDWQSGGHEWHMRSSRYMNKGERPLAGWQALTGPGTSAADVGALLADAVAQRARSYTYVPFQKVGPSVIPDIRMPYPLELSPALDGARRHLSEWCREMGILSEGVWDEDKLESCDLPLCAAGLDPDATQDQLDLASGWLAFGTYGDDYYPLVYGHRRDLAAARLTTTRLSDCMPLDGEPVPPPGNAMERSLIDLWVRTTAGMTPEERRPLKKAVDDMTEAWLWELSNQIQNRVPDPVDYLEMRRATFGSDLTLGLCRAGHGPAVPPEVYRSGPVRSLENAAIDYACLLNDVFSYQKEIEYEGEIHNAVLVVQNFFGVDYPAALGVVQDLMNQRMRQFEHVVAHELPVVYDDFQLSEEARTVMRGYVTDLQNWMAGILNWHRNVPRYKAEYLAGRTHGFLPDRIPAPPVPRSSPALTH
The conditions noted are these: 75 uM FPP, 5 mM MgCl2, 25 mM Tris-HCl pH 7.8, 28 C overnight; products geosmin, germacradienol, germacrene D; positive control.

For assay [5], the target named is T5, KaGerS (AHH94051.1) (Kutzneria viridogrisea, UniProt W5W0G4).
T5 construct: gene KALB_676; codon-optimised, pETM11, N-terminal His-tag (TEV cleavable), E. coli, Ni-NTA purified
T5 sequence (W5W0G4 1-363): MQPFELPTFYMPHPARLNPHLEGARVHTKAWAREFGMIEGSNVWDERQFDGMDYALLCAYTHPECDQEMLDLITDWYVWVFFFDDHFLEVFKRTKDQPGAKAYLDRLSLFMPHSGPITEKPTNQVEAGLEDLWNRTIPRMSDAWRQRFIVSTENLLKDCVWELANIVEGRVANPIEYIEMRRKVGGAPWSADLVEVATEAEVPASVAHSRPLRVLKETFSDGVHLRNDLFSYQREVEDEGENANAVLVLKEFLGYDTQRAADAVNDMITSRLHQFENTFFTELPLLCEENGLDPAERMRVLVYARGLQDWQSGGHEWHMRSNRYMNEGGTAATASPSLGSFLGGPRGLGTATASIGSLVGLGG
To be noted: 75 uM FPP, 5 mM MgCl2, 25 mM Tris-HCl pH 7.8, 28 C overnight; products germacradienol and germacrene D. The text has this:
product identification by GC-QToF on KaGerS (AHH94051.1) | we tested its functionality with FPP in in vitro conditions. This yielded germacradienol and germacrene D

Assay [6] has as its target T6, RrBerS (AHY45426.1) (Rubrobacter radiotolerans, UniProt A0A023WZP4).
T6 construct: gene RradSPS_0143; codon-optimised, pETM11, N-terminal His-tag (TEV cleavable), E. coli, Ni-NTA purified
T6 sequence (A0A023WZP4 1-348): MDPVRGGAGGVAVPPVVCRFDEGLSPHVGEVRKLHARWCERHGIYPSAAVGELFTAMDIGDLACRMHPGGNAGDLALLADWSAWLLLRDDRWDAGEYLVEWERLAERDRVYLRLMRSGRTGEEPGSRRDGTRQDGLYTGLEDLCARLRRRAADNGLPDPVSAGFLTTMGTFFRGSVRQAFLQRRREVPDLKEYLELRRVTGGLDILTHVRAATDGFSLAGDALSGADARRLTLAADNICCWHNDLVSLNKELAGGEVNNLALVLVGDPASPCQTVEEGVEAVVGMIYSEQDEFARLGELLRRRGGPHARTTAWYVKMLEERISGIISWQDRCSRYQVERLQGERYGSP
The conditions noted are these: 5 mM MgCl2, 25 mM Tris-HCl pH 7.8, 28 C overnight.

The target of assay [7] is T7, ScEpiS (CAN96536.1), 10-epi-cubebol synthase (Sorangium cellulosum, UniProt A9GK58).
T7 construct: gene sce6369; codon-optimised, pETM11, N-terminal His-tag (TEV cleavable), E. coli, Ni-NTA purified
T7 sequence (A9GK58 1-315): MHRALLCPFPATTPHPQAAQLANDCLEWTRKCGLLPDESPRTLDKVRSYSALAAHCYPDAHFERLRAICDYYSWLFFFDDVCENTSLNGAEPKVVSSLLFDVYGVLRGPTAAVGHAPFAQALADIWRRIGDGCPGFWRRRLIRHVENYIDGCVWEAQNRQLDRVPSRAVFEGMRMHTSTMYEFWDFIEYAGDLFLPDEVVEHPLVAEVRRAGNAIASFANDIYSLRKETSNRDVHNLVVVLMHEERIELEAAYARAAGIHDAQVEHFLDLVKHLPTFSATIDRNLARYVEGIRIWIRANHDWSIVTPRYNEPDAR
The conditions noted are these: 5 mM MgCl2, 25 mM Tris-HCl pH 7.8, 28 C overnight.

T1 sequence (A0ABQ6UH67 entry or part of it): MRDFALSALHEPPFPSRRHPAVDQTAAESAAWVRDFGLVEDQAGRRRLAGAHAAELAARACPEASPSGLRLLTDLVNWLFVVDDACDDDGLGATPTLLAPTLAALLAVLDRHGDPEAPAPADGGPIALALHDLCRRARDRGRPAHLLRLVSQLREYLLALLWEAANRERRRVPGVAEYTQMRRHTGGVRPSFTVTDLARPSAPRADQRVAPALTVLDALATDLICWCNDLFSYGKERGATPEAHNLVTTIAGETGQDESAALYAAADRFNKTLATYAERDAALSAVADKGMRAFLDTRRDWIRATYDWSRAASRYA

For the compound `CC(C)=CCC/C(C)=C/CC/C(C)=C/COP(=O)(O)OP(=O)(O)O` [FPP], the “product identification by GC-QToF” value was “incubated with FPP yielded β-elemene, and 8-isopropenyl-1,5-dimethyl-1,5-cyclodecadiene” in assay [1]; “with FPP yielded a single product that was identified as trans-nerolidol by GC–QToF analysis” in assay [2] (75 uM FPP, product trans-nerolidol); “converted FPP into only aromadendrene in in vitro analysis” in assay [3]; “purified geosmin synthase yielded the sesquiterpenoids geosmin, germacradienol and germacrene D” in assay [4]; “we tested its functionality with FPP in in vitro conditions. This yielded germacradienol and germacrene D” in assay [5]; “also showed activity with both FPP and GPP, yielding α-bergamotene” in assay [6] (75 uM FPP, product alpha-bergamotene). Also, in assay [7] (75 uM FPP, products 10-epi-cubebol and others), the “product identification by GC-QToF” value is “When ScEpiS was incubated with FPP the products obtained were 10-epi-α-cubinene”.

As to `CC(C)=CCC/C(C)=C/COP(=O)(O)OP(=O)(O)O` [GPP], the “product identification by GC-QToF” value in assay [2] (100 uM GPP, products R- and S-linalool) is “Incubation with GPP yielded both R- and S- linalool isomers”; in assay [6] (100 uM GPP, product linalool), “also showed activity with both FPP and GPP, yielding α-bergamotene”; in assay [7] (100 uM GPP, products cis/trans-beta-ocimene and linalool) it was “with GPP yielded the monoterpene products cis- and trans-β-ocimene”.
